Laboratory results from a melting point compilation (Tetko et al.; mined from patent text by program, amines drawn as free bases though some values may be those of a salt).

Row | SMILES | melting point
1 | CC(C)(C)c1cc(-c2nn(CC(F)(F)F)c3ncccc23)cc(C(C)(C)C)c1O | 104 to 106 °C
2 | OCCCCCCCCCCCCCCC(O)CNCCO (stereo unspecified) | 103 °C
3 | C#CCOC(=O)C1=C(C)NC(C)=C(C(=O)OC)C1c1ccccc1C(F)(F)F (stereo unspecified) | 115 °C
4 | O=C1COc2ccc(C3=Nc4ccccc4SC3c3ccccc3Cl)cc2N1 (stereo unspecified) | 195 to 200 °C
5 | Cc1nc(N2CCN(Cc3ccc(OC(F)(F)F)cc3)C2=O)sc1C(=O)Nc1ccccc1 | 187 to 188 °C
6 | CCC(=O)O[C@H]1C[C@@H](C(=O)OC)[C@]2(C)CC[C@H]3C(=O)O[C@H](c4ccoc4)C[C@]3(C)[C@H]2C1=O | 217 to 221 °C
7 | CNC(=O)c1ccc(C)c(-n2c(C)cc(OCc3ccccc3CNC(=O)Nc3cc(C(C)(C)C)nn3-c3ccc(O)c(Cl)c3)c(Cl)c2=O)c1 | 201 to 203 °C
8 | Cc1ccc(-c2coc3cc(O)cc(O)c3c2=O)cc1 | 215 to 217 °C
9 | C[C@H](NC(=O)Cc1ccccc1)C(=O)O | 102 to 104 °C
10 | CC1(C)CCC2=C(O1)c1ccccc1C(=O)C2=O | 154 to 156 °C
11 | O=[N+]([O-])c1cc(Br)ccc1N1CCc2ccccc21 | 100 to 102 °C
12 | CCC(CC)n1nnc2c([N+](=O)[O-])cccc21 | 129 to 132 °C
13 | N#Cc1n[nH]cc1-c1ccc(Cl)cc1C(=O)c1ccccc1Cl | 183 to 184 °C
14 | COc1cc(C2=C(c3cn(CCCNC(=O)C(CC(C)C)NC(=O)OC(C)(C)C)c4ccccc34)C(=O)NC2=O)cc(OC)c1OC (stereo unspecified) | 140 to 142 °C
15 | CN(C)C(=NCCN1CCC(C(=O)c2ccc(F)cc2)CC1)NC#N | 139 to 141 °C
16 | C[C@@H]1CN(c2ccc([N+](=O)[O-])cc2C#N)C[C@H](C)N1 | 109 to 110 °C
17 | CCn1c(N)c(C(=O)NC)c(=O)c2ccc(-c3ccc(CC(=O)Nc4ccccn4)nc3)nc21 | 266 °C
18 | NC(=O)c1nnn(Cc2ccc(Cl)c(Cl)c2)c1N | 221 to 222 °C
19 | COc1ccnc(CCc2nc3cc(-c4ccc(NS(=O)(=O)c5ccccc5)cc4)cnc3[nH]2)c1 | 251 to 253 °C
20 | Cn1c2c(ccc1=O)C(C)(N)CCC2 (stereo unspecified) | 166 to 168 °C
21 | COC1c2sccc2C(=O)c2ccccc2C1Br (stereo unspecified) | 103 to 106 °C
22 | CCCCc1nc(Cl)c(CO)n1Cc1ccc(OCc2ccccc2)cc1 | 115 to 116 °C
23 | CN1CCN(Cc2ccc(Cl)cc2Cl)C(C2=NCCN2)C1 (stereo unspecified) | 167 to 169 °C
24 | CC(C)(Cl)C(=O)c1ccc(C(=O)c2ccc(C(=O)C(C)(C)Cl)cc2)cc1 | 82 to 83 °C

Row | SMILES | melting point
25 | CON=Cc1ccc2c(c1CN1CCN(C)CC1)OCO2 | 100 to 102 °C
26 | Cc1cc2c(cc1OCC(=O)O)C(C)(C)CC1(CC(C)(C)c3cc(OCC(=O)O)c(C)cc3O1)O2 | > 260 °C
27 | O=c1cc(-c2ccc(O)cc2)oc2ccc(CO)cc12 | 246 to 247 °C
28 | COc1cc2ncnc(N3CCN(C(=S)Nc4cc(O)nc(O)n4)CC3)c2cc1OC | 283 to 285 °C
29 | OCc1cc2cnc(Cl)nc2n1C1CCCC1 | 174 to 176 °C
30 | Cc1ccc(O)c(C(=O)OCC=Cc2ccccc2)c1 | 178 to 179 °C
31 | Cc1noc(NS(=O)(=O)c2cccc3c(NC(C)C)cccc23)c1C | 156 to 159 °C
32 | COc1cc(Nc2cn(Cc3ccccc3)c(=O)c3ccccc23)cc(OC)c1OC | 162 to 164 °C
33 | OCC1(c2ccccc2)CCN(CCC(c2ccccc2)(c2ccccc2)c2ccccn2)CC1 | 148 to 151 °C
34 | Clc1nc(-c2ncccn2)nc(Cl)c1-c1cccs1 | 159 to 160 °C
35 | CCOC(=O)CCc1cc(-c2ccc(C)cc2)n(-c2ccc(S(N)(=O)=O)cc2)n1 | 116 to 117 °C
36 | COc1ccc2c(c1)Sc1ccc(SC)cc1C(O)C2 (stereo unspecified) | 122 to 124 °C
37 | O=C1C=C2CCCCC2N1c1ccc(O)cc1 (stereo unspecified) | 210 °C
38 | CC1(C)NC(=O)CN1C(=O)CN | 145 to 148 °C
39 | COC(=O)C(Cc1cc(OC)cc(OC)c1)c1ccc(Oc2ccc(CC3SC(=O)NC3=O)cc2)cc1 (stereo unspecified) | 125 to 128 °C
40 | CC(C)(C)c1ccc(NC(=O)c2ccc(C3NOC(=O)N3)cc2)cc1 (stereo unspecified) | > 300 °C
41 | Nc1cccc(C(=O)NS(=O)(=O)c2ccccc2)c1 | 138 °C
42 | NC(=NO)c1ccc(-c2ccc(N)cc2)o1 | 180 to 183 °C
43 | CCc1nc2c(OCc3ccccc3)cc(C(=O)N(C)C)cc2n1C | 104 to 108 °C
44 | COc1ccc(-c2c(C(=O)c3ccccc3)c(C)nc3cc(OC)c(OC)cc23)cc1OC | 151 to 152 °C
45 | Clc1ccc(N=Cc2ccc(Cl)c3cc(Cl)cnc23)c(Cl)c1 | 156 °C
46 | C=C(Cn1ccnc1)c1cc(F)ccc1OCc1c(Cl)cccc1Cl | 106 to 108 °C
47 | CCCCOCCOC(=O)C(=O)Nc1nc(-c2ccccc2)cs1 | 94 to 95 °C
48 | CN(C)c1ccc(-c2cncc(OC3SCC(O)C(O)C3O)c2)cc1 (stereo unspecified) | 240 °C

Row | SMILES | melting point
49 | CCOC(=O)CNCc1c(N)ccc(Cl)c1Cl | 56 to 60 °C
50 | CCOC(=O)C(=C1SC(=S)N(CC(=O)O)C1=O)c1csc(NC(=S)NC(=O)c2ccccc2)n1 | 233 to 235 °C
51 | O=C(O)c1cccc(CCc2n[nH]c3c2c(=O)n(-c2ccccc2)c2ncccc32)c1 | 159 to 161 °C
52 | OCCCOc1ccc(-c2ccccc2)cc1 | 123 to 124 °C
53 | CCOP(=O)(OCC)C(Nc1nccs1)P(=O)(OCC)OCC | 103 to 104 °C
54 | N#Cc1c(N2CCN(C(=O)c3ccco3)CC2)c2cc(F)ccc2n(Cc2ccccc2)c1=O | 209 °C
55 | CC(C)(C)OC(=O)Nc1ccc(-c2cccc(F)c2)cc1NC(=O)CC(=O)c1cccc(-n2ccnc2)c1 | 70 to 83 °C
56 | COC(=O)c1ccc(C(O)c2cnn3c(N(C)c4ccccc4)ncnc23)cc1 (stereo unspecified) | 68 °C
57 | CCCCCCCN(CC)CCC(O)c1ccc(NS(C)(=O)=O)cc1 (stereo unspecified) | 74 to 75 °C
58 | N#CCCCOc1ccc(-c2nnc(CSCCOc3ccccc3)o2)cc1 | 67 to 68 °C
59 | Nc1c(F)c(N2CCC(C(N)c3cccnc3)C2)c(F)c2c1c(=O)c(C(=O)O)cn2C1CC1F (stereo unspecified) | 123 to 126 °C
60 | O=[N+]([O-])c1ccc2c(c1)SC1=NCCCN12 | 248 °C
61 | COC(=O)COc1cccc2c1cc(C)n2Cc1cccc(-c2ccccc2)c1 | 99 to 102 °C
62 | CN(C)n1c(=O)c2ccccc2n(C)c1=O | 154 °C
63 | CC(C)C[C@H](NC(=O)[C@H](CC(=O)OC(C)(C)C)Cc1ccccc1)C(=O)N[C@@H](CC(C)C)[C@@H](O)c1nccs1 | 162 to 163 °C
64 | COc1ccc(-n2nc(C(F)(F)F)nc2-c2ccc(S(C)(=O)=O)cc2)cc1 | 156 °C
65 | C=CCOC(=O)NS(=O)(=O)CCc1cc(OCCCC)nn1Cc1ccc(Cl)cc1Cl | 94 to 95 °C
66 | COC(COc1ccc2oc(C(=O)O)c(C)c2c1)OC | 74 °C
67 | OCc1cn(-c2ccc3ncccc3c2)cn1 | 183 to 187 °C
68 | CC(O)(c1cccnc1)C1CCN(C[C@@]23C[C@@H](c4ccccc42)c2ccc(Cl)cc23)CC1 (single isomer, unassigned) | 87 to 93 °C
69 | Cc1cc(C)c(Nc2nc(C)ccc2S(=O)(=O)c2ccc(F)c(Cl)c2)c(C)c1 | 139 to 141 °C
70 | CCOC(=O)C1=C(C)NC(=O)N(C(N)=O)C1c1cccc([N+](=O)[O-])c1 (stereo unspecified) | 213 to 215 °C
71 | CC(C)(C(=O)N(O)Cc1ccccc1Cl)C(Cl)Cl | 136 to 138 °C
72 | CCn1nc(-c2ccc(OC)c(F)c2)c(-c2ccc(OC)c(F)c2)cc1=O | 178 °C

Row | SMILES | melting point
73 | C=CCC(C)(CC=C)C(=O)O[C@H]1C[C@H](O)C=C2C=C[C@H](C)[C@H](CC[C@@H]3C[C@@H](O)CC(=O)O3)[C@H]21 | 115 to 116 °C
74 | CCC(C)(Oc1ccc(CC(=O)Nc2cc(C)cc(C)c2)cc1)C(=O)O (stereo unspecified) | 131 to 133 °C
75 | Cc1cc(Cn2cc(C3c4ccccc4C=Cc4ccccc43)c(=S)[nH]c2=O)cc(C(=O)O)c1 | > 240 °C
76 | CCN(Cc1ccc2nc(C)[nH]c(=O)c2c1)c1ccc(C(=O)NCc2nccn2Cc2ccccc2)cc1 | 217 to 221 °C
77 | O=c1[nH]c(CCCN2CCCC2)cc2ccccc12 | 117 to 119 °C
78 | CON=C(C)c1ccc2c(c1)ncn2-c1cccc(-c2nccs2)c1 | 157 to 159 °C
79 | COC=C(C(=O)OC)N(C)c1ncnc(-c2ccccc2)n1 | 98 to 101 °C
80 | CCCCCC1CCC(c2ccc3c(c2F)C(F)(F)Oc2c-3ccc(OCCCC)c2F)CC1 (stereo unspecified) | 99 °C
81 | O=CN1CCN(CCSc2nc3ccccc3[nH]2)CC1 | 146 to 148 °C
82 | CC(C)(C)OC(=O)N1c2ccccc2CC1COc1ccc(CC2SC(=O)N(C(c3ccccc3)(c3ccccc3)c3ccccc3)C2=O)cc1 (stereo unspecified) | 85.4 to 87.2 °C
83 | CC1Cc2cc3c(cc2C(c2ccc([N+](=O)[O-])cc2)=NN1C(=O)Cc1ccccc1)OCO3 (stereo unspecified) | 193 to 195 °C
84 | O=C(O)c1ccc(-n2cnnc2)cc1 | > 300 °C
85 | COc1ccc(C(=O)NCCCN(CCCNC(=O)c2ccc(OC)cc2)C(=O)c2ccc(OC)cc2)cc1 | 117 to 119 °C
86 | CCCCCCCCCCCCCCC[C@H]1O[C@@H]1C(=O)OC | 54 to 55 °C
87 | COc1cc(C)cc(OC)c1CCCCCNC(=O)[C@@H](CCCCN)NC(=O)c1cc2ccccc2n1CC(=O)O | 173 °C
88 | O=C(c1ccccn1)c1cc(Br)ccc1-n1cnnc1CCl | 147 to 149 °C
89 | CCCN(CCC)CC1CCCCN1CCNC(=O)N1c2ccccc2NC(=O)c2cccnc21 (stereo unspecified) | 149 to 151 °C
90 | CCOc1ccc2nc(SC)c(C=O)cc2c1 | 124 to 125 °C
91 | CCCc1c(C(=O)C(C)C)c2ccc(CC(=O)O)cc2n1Cc1cc2c(cc1Cl)OCO2 | 81 to 83 °C
92 | O=C(O)c1cn(CC2CC2)c2cc(Cl)ccc12 | 219 to 220 °C
93 | Cc1ncc(CO)cc1OC(=O)c1cccs1 | 59 to 61 °C
94 | CCCCCCCCCC(=O)Nc1ccc(S(=O)(=O)Nc2nnc(CO)s2)cc1 | 69 to 70 °C
95 | Nc1nc(Cl)nc2c1ncn2C1C=CCCC1 (stereo unspecified) | 195 to 197 °C
96 | CCN(CC)c1nc2ncnn2c2c1cnc1c2cnn1CC | 215 to 217 °C
